The record followed here is patent US20230312587A1, “PTERIDINONE COMPOUNDS AND USES THEREOF” (Vertex Pharmaceutical Incorporated, priority 2018, published 2023).

Read-outs that look alike come from different tables or passages of the source.

The test system of the test is β-catenin-TCF-mediated reporter transcription activity in Colo 205 cells. Kind of test: Colo 205 reporter assay (TCF/LEF luciferase). Type of test: cell-based. The settings on record: Colo 205 TCF/LEF luciferase reporter, five hours after addition of compound, read-out: TCF reporter Colo205 IC50. The method, boiled down: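 Luciferase signal from a TCF/LEF-driven reporter, stably integrated in Colo 205 colon cancer cells, was measured 5 h after compound addition.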
(In general: A reporter such as luciferase makes a cellular process visible.)

`CC[C@H]1C(=O)Nc2c(C)nc(NCc3cnn(Cc4ccc(F)nc4)c3)nc2N1C` [Compound 389, (7S)-7-Ethyl-2-(((1-((6-fluoropyridin-3-yl)methyl)-1H-pyrazol-4-yl)methyl)amino)-4,8-dimethyl-7,8-dihydropteridin-6(5H)-one]: the IC50 (Homo sapiens, COLO 205, 5 h) is less than 300 nM.

Consider `Cc1nc(NCc2cnn([C@H](C)c3ccc(C(F)(F)F)nc3)c2)nc2c1NC(=O)[C@H](C)N2C` [Compound 175, (7S)-4,7,8-Trimethyl-2-(((1-((R)-1-(6-(trifluoromethyl)pyridin-3-yl)ethyl)-1H-pyrazol-4-yl)methyl)amino)-7,8-dihydropteridin-6(5H)-one], for which, where the note is “Homo sapiens, COLO 205, 5 h”, the concentration for half-maximal inhibition (IC50) was less than 300 nM.

Take `Cc1nc(NCc2cnn(C3CCOCC3)c2)nc2c1NC(=O)[C@H](C)N2C` [Compound 118, (7S)-4,7,8-trimethyl-2-(((1-(tetrahydro-2H-pyran-4-yl)-1H-pyrazol-4-yl)methyl)amino)-7,8-dihydropteridin-6(5H)-one]: the concentration for half-maximal inhibition (IC50) (Homo sapiens, COLO 205, 5 h) was no less than 5000 nM.

Regarding `Cc1nc(NCc2cnn(CC(C)(C)c3ccc(F)cc3)c2)nc2c1NC(=O)[C@H](C)N2C` [Compound 92, (7S)-2-(((1-(2-(4-fluorophenyl)-2-methylpropyl)-1H-pyrazol-4-yl)methyl)amino)-4,7,8-trimethyl-7,8-dihydropteridin-6(5H)-one], the IC50 (Homo sapiens, COLO 205, 5 h) is less than 300 nM.

`CN1C(=O)C(C)(C)Nc2nc(NCc3cnn(Cc4ccc(F)cc4)c3)ncc21` [Compound 225, 2-(((1-(4-Fluorobenzyl)-1H-pyrazol-4-yl)methyl)amino)-5,7,7-trimethyl-7,8-dihydropteridin-6(5H)-one]: the concentration for half-maximal inhibition (IC50) (Homo sapiens, COLO 205, 5 h) was no less than 5000 nM.

`CO[C@H](C)[C@H]1C(=O)Nc2c(C)nc(N[C@@H]3CC[C@H](Nc4cnc(C(F)(F)F)cn4)C3)nc2N1C` [Compound 736, (S)-7-((R)—1-methoxyethyl)-4,8-dimethyl-2-(((1R,3S)-3-((5-(trifluoromethyl)pyrazin-2-yl)amino)cyclopentyl)amino)-7,8-dihydropteridin-6(5H)-one]: the IC50 (Homo sapiens, COLO 205, 5 h) was 300 to 1000 nM.

For the compound `Cc1nc(NCc2cnn(CCc3ccc(F)c(F)c3)c2)nc2c1NC(=O)[C@H](C)N2C` [Compound 105, (7S)-2-(((1-(3,4-difluorophenethyl)-1H-pyrazol-4-yl)methyl)amino)-4,7,8-trimethyl-7,8-dihydropteridin-6(5H)-one], the IC50 (Homo sapiens, COLO 205, 5 h) was less than 300 nM.

Take `C[C@H]1C(=O)Nc2cnc(NCc3cnn(CCc4ccc(F)cc4F)c3)nc2N1C` [Compound 119, (7S)-2-(((1-(2,4-difluorophenethyl)-1H-pyrazol-4-yl)methyl)amino)-7,8-dimethyl-7,8-dihydropteridin-6(5H)-one]: the half-inhibitory concentration (IC50) (Homo sapiens, COLO 205, 5 h) was 1000 to 5000 nM.

With `Cc1nc(NCc2cnn(Cc3ccc(C(F)(F)F)nc3)c2)nc2c1NC(=O)C1(CCOC1)N2C` (stereo not drawn) [Compound 663, 4′,8′-dimethyl-2′-(((1-((6-(trifluoromethyl)pyridin-3-yl)methyl)-1H-pyrazol-4-yl)methyl)amino)-4,5,5′,8′-tetrahydro-2H,6′H-spiro[furan-3,7′-pteridin]-6′-one], the IC50 fell in the range of 1000 to 5000 nM.

Regarding `COc1cc(O[C@H]2C[C@H](Nc3nc(C)c4c(n3)N(C)[C@@H](C)C(=O)N4C)C2)ccc1F` [Compound 373, (7S)-2-((trans-3-(4-fluoro-3-methoxyphenoxy)cyclobutyl)amino)-4,5,7,8-tetramethyl-7,8-dihydropteridin-6(5H)-one], the IC50 (Homo sapiens, COLO 205, 5 h) lay in the range of 300 to 1000 nM.

`Cc1nc(NCc2cnn(Cc3ccncc3C(F)(F)F)c2)nc2c1NC(=O)[C@H](C)N2C` [Compound 187, (7S)-4,7,8-trimethyl-2-(((1-((3-(trifluoromethyl)pyridin-4-yl)methyl)-1H-pyrazol-4-yl)methyl)amino)-7,8-dihydropteridin-6(5H)-one]: the IC50 (Homo sapiens, COLO 205, 5 h) is less than 300 nM.

Take `Cc1nc(NCc2cnn(Cc3ccc(OC(F)(F)F)nc3)c2)nc2c1NC(=O)[C@H](C(C)C)N2C` [Compound 510, (S)-7-isopropyl-4,8-dimethyl-2-(((1-((6-(trifluoromethoxy)pyridin-3-yl)methyl)-1H-pyrazol-4-yl)methyl)amino)-7,8-dihydropteridin-6(5H)-one]: where the note is “Homo sapiens, COLO 205, 5 h”, the IC50 was less than 300 nM.

For orientation: IC50 means the concentration that gives 50% inhibition.
